Experimental data published in ChEMBL document CHEMBL3046635, “Synthesis and Herbicidal Activity of New Pyrazole-4-carboxamide Derivatives” (J Pestic Sci, 2004).
The source made the active and inactive calls.

System: Oryza sativa
Experiment: Phytotoxicity against Oryza sativa cv. Koshihikari (rice) at 2000 g a.i/ha measured after 14 days
Assay type: organism-based
Details: in vivo, 336 h

| SMILES | Activity |
| --- | --- |
| CCCN(CC)C(=O)c1cn(C)nc1OCc1cccc(C(F)(F)F)c1 | Toxic |
| CCCN(CC)C(=O)c1cn(C)nc1OCc1cccc(Br)c1 | Non-toxic |
| CCCN(CC)C(=O)c1cn(C)nc1OCc1ccc(C(F)(F)F)cc1 | Non-toxic |

System: Echinochloa oryzicola
Experiment: Pre-emergence herbicidal activity against Echinochloa oryzicola at 2000 g a.i/ha measured after 14 days
Assay type: functional, organism-based
Details: not given

| SMILES | Activity |
| --- | --- |
| CCCN(CC)C(=O)c1cn(C)nc1OCc1cccc(C(F)(F)F)c1 | Active |
| CCCN(CC)C(=O)c1cn(C)nc1OCc1cccc(Br)c1 | Active |
| CCCN(CC)C(=O)c1cn(C)nc1OCc1ccc(C(F)(F)F)cc1 | inactive |

System: Eleocharis acicularis
Experiment: Post-emergence herbicidal activity against Eleocharis acicularis assessed as bleaching of stem/leaf parts; further: test concentration or dose not given here
Assay type: functional, organism-based
Details: not given

| SMILES | Activity |
| --- | --- |
| CCCN(CC)C(=O)c1cn(C)nc1OCc1cccc(C(F)(F)F)c1 | Active |
| CCCN(CC)C(=O)c1cn(C)nc1OCc1cccc(Br)c1 | Active |
| CCCN(CC)C(=O)c1cn(C)nc1OCc1ccc(C(F)(F)F)cc1 | Active |

System: Eleocharis acicularis
Experiment: Pre-emergence herbicidal activity against Eleocharis acicularis assessed as bleaching of stem/leaf parts
Assay type: functional, organism-based
Details: not given

| SMILES | Activity |
| --- | --- |
| CCCN(CC)C(=O)c1cn(C)nc1OCc1cccc(C(F)(F)F)c1 | Active |
| CCCN(CC)C(=O)c1cn(C)nc1OCc1cccc(Br)c1 | Active |
| CCCN(CC)C(=O)c1cn(C)nc1OCc1ccc(C(F)(F)F)cc1 | Active |

System: Ammannia multiflora
Experiment: Pre-emergence herbicidal activity against Ammannia multiflora assessed as bleaching of stem/leaf parts
Assay type: functional, organism-based
Details: not given

| SMILES | Activity |
| --- | --- |
| CCCN(CC)C(=O)c1cn(C)nc1OCc1cccc(C(F)(F)F)c1 | Active |
| CCCN(CC)C(=O)c1cn(C)nc1OCc1cccc(Br)c1 | Active |
| CCCN(CC)C(=O)c1cn(C)nc1OCc1ccc(C(F)(F)F)cc1 | Active |

System: Rotala indica
Experiment: Pre-emergence herbicidal activity against Rotala indica assessed as bleaching of stem/leaf parts
Assay type: functional, organism-based
Details: not given

| SMILES | Activity |
| --- | --- |
| CCCN(CC)C(=O)c1cn(C)nc1OCc1cccc(C(F)(F)F)c1 | Active |
| CCCN(CC)C(=O)c1cn(C)nc1OCc1cccc(Br)c1 | Active |
| CCCN(CC)C(=O)c1cn(C)nc1OCc1ccc(C(F)(F)F)cc1 | Active |

System: Elatine triandra
Experiment: Pre-emergence herbicidal activity against Elatine triandra assessed as bleaching of stem/leaf parts
Assay type: functional, organism-based
Details: not given

| SMILES | Activity |
| --- | --- |
| CCCN(CC)C(=O)c1cn(C)nc1OCc1cccc(C(F)(F)F)c1 | Active |
| CCCN(CC)C(=O)c1cn(C)nc1OCc1cccc(Br)c1 | Active |
| CCCN(CC)C(=O)c1cn(C)nc1OCc1ccc(C(F)(F)F)cc1 | Active |

System: Lindernia procumbens
Experiment: Pre-emergence herbicidal activity against Lindernia procumbens assessed as bleaching of stem/leaf parts
Assay type: functional, organism-based
Details: not given

| SMILES | Activity |
| --- | --- |
| CCCN(CC)C(=O)c1cn(C)nc1OCc1cccc(C(F)(F)F)c1 | Active |
| CCCN(CC)C(=O)c1cn(C)nc1OCc1cccc(Br)c1 | Active |
| CCCN(CC)C(=O)c1cn(C)nc1OCc1ccc(C(F)(F)F)cc1 | Active |

System: Schoenoplectiella juncoides
Experiment: Pre-emergence herbicidal activity against Schoenoplectiella juncoides assessed as bleaching of stem/leaf parts
Assay type: functional, organism-based
Details: not given

| SMILES | Activity |
| --- | --- |
| CCCN(CC)C(=O)c1cn(C)nc1OCc1cccc(C(F)(F)F)c1 | Active |
| CCCN(CC)C(=O)c1cn(C)nc1OCc1cccc(Br)c1 | Active |
| CCCN(CC)C(=O)c1cn(C)nc1OCc1ccc(C(F)(F)F)cc1 | Active |

System: Pontederia vaginalis
Experiment: Pre-emergence herbicidal activity against Monochoria vaginalis assessed as bleaching of stem/leaf parts
Assay type: functional, organism-based
Details: not given

| SMILES | Activity |
| --- | --- |
| CCCN(CC)C(=O)c1cn(C)nc1OCc1cccc(C(F)(F)F)c1 | Active |
| CCCN(CC)C(=O)c1cn(C)nc1OCc1cccc(Br)c1 | Active |
| CCCN(CC)C(=O)c1cn(C)nc1OCc1ccc(C(F)(F)F)cc1 | Active |

System: Cyperus difformis
Experiment: Pre-emergence herbicidal activity against Cyperus difformis assessed as bleaching of stem/leaf parts
Assay type: functional, organism-based
Details: not given

| SMILES | Activity |
| --- | --- |
| CCCN(CC)C(=O)c1cn(C)nc1OCc1cccc(C(F)(F)F)c1 | Active |
| CCCN(CC)C(=O)c1cn(C)nc1OCc1cccc(Br)c1 | Active |
| CCCN(CC)C(=O)c1cn(C)nc1OCc1ccc(C(F)(F)F)cc1 | Active |

System: Echinochloa oryzicola
Experiment: Pre-emergence herbicidal activity against Echinochloa oryzicola assessed as bleaching of stem/leaf parts
Assay type: functional, organism-based
Details: not given

| SMILES | Activity |
| --- | --- |
| CCCN(CC)C(=O)c1cn(C)nc1OCc1cccc(C(F)(F)F)c1 | Active |
| CCCN(CC)C(=O)c1cn(C)nc1OCc1cccc(Br)c1 | Active |
| CCCN(CC)C(=O)c1cn(C)nc1OCc1ccc(C(F)(F)F)cc1 | Active |

System: Ammannia multiflora
Experiment: Post-emergence herbicidal activity against Ammannia multiflora assessed as bleaching of stem/leaf parts; further: test concentration or dose not given here
Assay type: functional, organism-based
Details: not given

| SMILES | Activity |
| --- | --- |
| CCCN(CC)C(=O)c1cn(C)nc1OCc1cccc(C(F)(F)F)c1 | Active |
| CCCN(CC)C(=O)c1cn(C)nc1OCc1cccc(Br)c1 | Active |
| CCCN(CC)C(=O)c1cn(C)nc1OCc1ccc(C(F)(F)F)cc1 | Active |

System: Elatine triandra
Experiment: Post-emergence herbicidal activity against Elatine triandra assessed as bleaching of stem/leaf parts; further: test concentration or dose not given here
Assay type: functional, organism-based
Details: not given

| SMILES | Activity |
| --- | --- |
| CCCN(CC)C(=O)c1cn(C)nc1OCc1cccc(C(F)(F)F)c1 | Active |
| CCCN(CC)C(=O)c1cn(C)nc1OCc1cccc(Br)c1 | Active |
| CCCN(CC)C(=O)c1cn(C)nc1OCc1ccc(C(F)(F)F)cc1 | Active |

System: Rotala indica
Experiment: Post-emergence herbicidal activity against Rotala indica assessed as bleaching of stem/leaf parts; further: test concentration or dose not given here
Assay type: functional, organism-based
Details: not given

| SMILES | Activity |
| --- | --- |
| CCCN(CC)C(=O)c1cn(C)nc1OCc1cccc(C(F)(F)F)c1 | Active |
| CCCN(CC)C(=O)c1cn(C)nc1OCc1cccc(Br)c1 | Active |
| CCCN(CC)C(=O)c1cn(C)nc1OCc1ccc(C(F)(F)F)cc1 | Active |

System: Schoenoplectiella juncoides
Experiment: Post-emergence herbicidal activity against Schoenoplectiella juncoides assessed as bleaching of stem/leaf parts; further: test concentration or dose not given here
Assay type: functional, organism-based
Details: not given

| SMILES | Activity |
| --- | --- |
| CCCN(CC)C(=O)c1cn(C)nc1OCc1cccc(C(F)(F)F)c1 | Active |
| CCCN(CC)C(=O)c1cn(C)nc1OCc1cccc(Br)c1 | Active |
| CCCN(CC)C(=O)c1cn(C)nc1OCc1ccc(C(F)(F)F)cc1 | Active |

System: Lindernia procumbens
Experiment: Post-emergence herbicidal activity against Lindernia procumbens assessed as bleaching of stem/leaf parts; further: test concentration or dose not given here
Assay type: functional, organism-based
Details: not given

| SMILES | Activity |
| --- | --- |
| CCCN(CC)C(=O)c1cn(C)nc1OCc1cccc(C(F)(F)F)c1 | Active |
| CCCN(CC)C(=O)c1cn(C)nc1OCc1cccc(Br)c1 | Active |
| CCCN(CC)C(=O)c1cn(C)nc1OCc1ccc(C(F)(F)F)cc1 | Active |

System: Pontederia vaginalis
Experiment: Post-emergence herbicidal activity against Monochoria vaginalis assessed as bleaching of stem/leaf parts; further: test concentration or dose not given here
Assay type: functional, organism-based
Details: not given

| SMILES | Activity |
| --- | --- |
| CCCN(CC)C(=O)c1cn(C)nc1OCc1cccc(C(F)(F)F)c1 | Active |
| CCCN(CC)C(=O)c1cn(C)nc1OCc1cccc(Br)c1 | Active |
| CCCN(CC)C(=O)c1cn(C)nc1OCc1ccc(C(F)(F)F)cc1 | Active |

System: Cyperus difformis
Experiment: Post-emergence herbicidal activity against Cyperus difformis assessed as bleaching of stem/leaf parts; further: test concentration or dose not given here
Assay type: functional, organism-based
Details: not given

| SMILES | Activity |
| --- | --- |
| CCCN(CC)C(=O)c1cn(C)nc1OCc1cccc(C(F)(F)F)c1 | Active |
| CCCN(CC)C(=O)c1cn(C)nc1OCc1cccc(Br)c1 | Active |
| CCCN(CC)C(=O)c1cn(C)nc1OCc1ccc(C(F)(F)F)cc1 | Active |

System: Echinochloa oryzicola
Experiment: Post-emergence herbicidal activity against Echinochloa oryzicola assessed as bleaching of stem/leaf parts; further: test concentration or dose not given here
Assay type: functional, organism-based
Details: not given

| SMILES | Activity |
| --- | --- |
| CCCN(CC)C(=O)c1cn(C)nc1OCc1cccc(C(F)(F)F)c1 | Active |
| CCCN(CC)C(=O)c1cn(C)nc1OCc1cccc(Br)c1 | Active |
| CCCN(CC)C(=O)c1cn(C)nc1OCc1ccc(C(F)(F)F)cc1 | Active |

System: Eleocharis acicularis
Experiment: Pre-emergence herbicidal activity against Eleocharis acicularis at 2000 g a.i/ha measured after 14 days
Assay type: functional, organism-based
Details: not given

| SMILES | Activity |
| --- | --- |
| CCCN(CC)C(=O)c1cn(C)nc1OCc1cccc(C(F)(F)F)c1 | Active |
| CCCN(CC)C(=O)c1cn(C)nc1OCc1cccc(Br)c1 | Active |
| CCCN(CC)C(=O)c1cn(C)nc1OCc1ccc(C(F)(F)F)cc1 | inactive |

System: Schoenoplectiella juncoides
Experiment: Pre-emergence herbicidal activity against Schoenoplectiella juncoides at 2000 g a.i/ha measured after 14 days
Assay type: functional, organism-based
Details: not given

| SMILES | Activity |
| --- | --- |
| CCCN(CC)C(=O)c1cn(C)nc1OCc1cccc(C(F)(F)F)c1 | Active |
| CCCN(CC)C(=O)c1cn(C)nc1OCc1cccc(Br)c1 | Active |
| CCCN(CC)C(=O)c1cn(C)nc1OCc1ccc(C(F)(F)F)cc1 | Active |

System: Pontederia vaginalis
Experiment: Pre-emergence herbicidal activity against Monochoria vaginalis at 2000 g a.i/ha measured after 14 days
Assay type: functional, organism-based
Details: not given

| SMILES | Activity |
| --- | --- |
| CCCN(CC)C(=O)c1cn(C)nc1OCc1cccc(C(F)(F)F)c1 | Active |
| CCCN(CC)C(=O)c1cn(C)nc1OCc1cccc(Br)c1 | Active |
| CCCN(CC)C(=O)c1cn(C)nc1OCc1ccc(C(F)(F)F)cc1 | Active |

System: Ammannia multiflora
Experiment: Pre-emergence herbicidal activity against Ammannia multiflora at 2000 g a.i/ha measured after 14 days
Assay type: functional, organism-based
Details: not given

| SMILES | Activity |
| --- | --- |
| CCCN(CC)C(=O)c1cn(C)nc1OCc1cccc(C(F)(F)F)c1 | inactive |
| CCCN(CC)C(=O)c1cn(C)nc1OCc1cccc(Br)c1 | inactive |
| CCCN(CC)C(=O)c1cn(C)nc1OCc1ccc(C(F)(F)F)cc1 | Active |

System: Rotala indica
Experiment: Pre-emergence herbicidal activity against Rotala indica at 2000 g a.i/ha measured after 14 days
Assay type: functional, organism-based
Details: not given

| SMILES | Activity |
| --- | --- |
| CCCN(CC)C(=O)c1cn(C)nc1OCc1cccc(C(F)(F)F)c1 | inactive |
| CCCN(CC)C(=O)c1cn(C)nc1OCc1cccc(Br)c1 | inactive |
| CCCN(CC)C(=O)c1cn(C)nc1OCc1ccc(C(F)(F)F)cc1 | Active |

System: Elatine triandra
Experiment: Pre-emergence herbicidal activity against Elatine triandra at 2000 g a.i/ha measured after 14 days
Assay type: functional, organism-based
Details: not given

| SMILES | Activity |
| --- | --- |
| CCCN(CC)C(=O)c1cn(C)nc1OCc1cccc(C(F)(F)F)c1 | inactive |
| CCCN(CC)C(=O)c1cn(C)nc1OCc1cccc(Br)c1 | inactive |
| CCCN(CC)C(=O)c1cn(C)nc1OCc1ccc(C(F)(F)F)cc1 | Active |

System: Lindernia procumbens
Experiment: Pre-emergence herbicidal activity against Lindernia procumbens at 2000 g a.i/ha measured after 14 days
Assay type: functional, organism-based
Details: not given

| SMILES | Activity |
| --- | --- |
| CCCN(CC)C(=O)c1cn(C)nc1OCc1cccc(C(F)(F)F)c1 | inactive |
| CCCN(CC)C(=O)c1cn(C)nc1OCc1cccc(Br)c1 | inactive |
| CCCN(CC)C(=O)c1cn(C)nc1OCc1ccc(C(F)(F)F)cc1 | Active |

System: Cyperus difformis
Experiment: Pre-emergence herbicidal activity against Cyperus difformis at 2000 g a.i/ha measured after 14 days
Assay type: functional, organism-based
Details: not given

| SMILES | Activity |
| --- | --- |
| CCCN(CC)C(=O)c1cn(C)nc1OCc1cccc(C(F)(F)F)c1 | Active |
| CCCN(CC)C(=O)c1cn(C)nc1OCc1cccc(Br)c1 | inactive |
| CCCN(CC)C(=O)c1cn(C)nc1OCc1ccc(C(F)(F)F)cc1 | inactive |
